The data set has as its system rodent lifetime carcinogenesis bioassay, tumor incidence TD50. The experiment in a line: carcinogenic potency in animals, long-term in vivo studies, CPDB compilation (AID 1745844).

The source made the active and inactive calls. How the calls were made is not given here.

What is called TD50 is the 50% point of the dose-response relation for the toxic effect studied.

With `CNCCc1ccc(OC(=O)C(C)C)c(OC(=O)C(C)C)c1`, the carcinogen call was “negative (inactive)” (rat, strain Charles River CD (Sprague-Dawley), females, by gavage, site: adrenal gland, lesion: cortical adenoma, dosed 104 weeks, study length 104 weeks); “negative (inactive)” (rat, strain Charles River CD (Sprague-Dawley), females, by gavage, site: adrenal gland, lesion: pheochromocytoma, malignant, dosed 104 weeks, study length 104 weeks); “negative (inactive)” (rat, strain Charles River CD (Sprague-Dawley), females, by gavage, site: mammary gland, lesion: adenocarcinoma, dosed 104 weeks, study length 104 weeks); “negative (inactive)” (rat, strain Charles River CD (Sprague-Dawley), females, by gavage, site: mammary gland, lesion: adenoma, dosed 104 weeks, study length 104 weeks); “negative (inactive)” (rat, strain Charles River CD (Sprague-Dawley), females, by gavage, site: pituitary gland, lesion: adenoma, dosed 104 weeks, study length 104 weeks); “negative (inactive)” (rat, strain Charles River CD (Sprague-Dawley), males, by gavage, site: adrenal gland, lesion: cortical adenoma, dosed 104 weeks, study length 104 weeks). Further, under “rat, strain Charles River CD (Sprague-Dawley), males, by gavage, site: adrenal gland, lesion: pheochromocytoma, malignant, dosed 104 weeks, study length 104 weeks”, the carcinogen call is “negative (inactive)”. Further, the TD50 (rat, strain Charles River CD (Sprague-Dawley), males, by gavage, site: pituitary gland, lesion: adenoma, dosed 104 weeks, study length 104 weeks) was 30.2 mg/kg/day (inactive).

As to `CC(Cl)(Cl)Cl`, the TD50 is, setting by setting: (mouse, strain B6C3F1, females, by gavage, site: lung, lesion: alveolar/bronchiolar adenoma + alveolar/bronchiolar carcinoma, dosed 78 weeks, study length 90 weeks) 260000 mg/kg/day; (mouse, strain B6C3F1, males, by gavage, site: any site (literature study), lesion: several types, types named in the paper, dosed 78 weeks, study length 90 weeks) 30500 mg/kg/day; (mouse, strain B6C3F1, males, by gavage, site: liver, lesion: hepatocellular adenoma + hepatocellular carcinoma + neoplastic nodule, dosed 78 weeks, study length 90 weeks) 39700 mg/kg/day; (mouse, strain B6C3F1, males, by gavage, site: lung, lesion: alveolar/bronchiolar adenoma + alveolar/bronchiolar carcinoma, dosed 78 weeks, study length 90 weeks) 5.08e+06 mg/kg/day; (mouse, strain B6C3F1, males, inhaled, site: liver, lesion: hepatocellular carcinoma, dosed 104 weeks, study length 104 weeks) 66300 mg/kg/day (inactive); (rat, strain Fischer 344, males, inhaled, site: liver, lesion: hepatocellular carcinoma, dosed 104 weeks, study length 104 weeks) 2070 mg/kg/day (inactive). For the same molecule, the TD50 was 5120 mg/kg/day (inactive) (rat, strain Fischer 344, males, inhaled, site: liver, lesion: neoplastic nodule, dosed 104 weeks, study length 104 weeks); 226 mg/kg/day (rat, strain Osborne-Mendel, females, by gavage, site: any site (literature study), lesion: several types, types named in the paper, dosed 78 weeks, study length 112 weeks); 950 mg/kg/day (rat, strain Osborne-Mendel, males, by gavage, site: any site (literature study), lesion: several types, types named in the paper, dosed 78 weeks, study length 106 weeks). Also, the carcinogen call is, setting by setting: (mouse, strain B6C3F1, females, inhaled, site: liver, lesion: hepatocellular adenoma, dosed 104 weeks, study length 104 weeks) “negative (inactive)”; (mouse, strain B6C3F1, females, inhaled, site: liver, lesion: hepatocellular carcinoma, dosed 104 weeks, study length 104 weeks) “negative (inactive)”; (mouse, strain B6C3F1, females, inhaled, site: liver, lesion: several types, types named in the paper, dosed 104 weeks, study length 104 weeks) “negative (inactive)”; (mouse, strain B6C3F1, males, inhaled, site: liver, lesion: hepatocellular adenoma, dosed 104 weeks, study length 104 weeks) “negative (inactive)”; (mouse, strain B6C3F1, males, inhaled, site: liver, lesion: several types, types named in the paper, dosed 104 weeks, study length 104 weeks) “negative (inactive)”; (rat, strain Fischer 344, females, inhaled, site: liver, lesion: hepatocellular carcinoma, dosed 104 weeks, study length 104 weeks) “negative (inactive)”. In addition, the carcinogen call (rat, strain Fischer 344, females, inhaled, site: liver, lesion: neoplastic nodule, dosed 104 weeks, study length 104 weeks) is “negative (inactive)”.

As to `Cn1cnc([N+](=O)[O-])c1Sc1ncnc2nc[nH]c12`, the TD50 is, setting by setting: (monkey, strain Rhesus [Macaca mulatta], both sexes, in feed, site: any site (literature study), lesion: benign tumor, dosed 774 weeks, study length 851 weeks) 4.89 mg/kg/day; (monkey, strain Rhesus [Macaca mulatta], both sexes, in feed, site: any site (literature study), lesion: several types, types named in the paper, dosed 774 weeks, study length 851 weeks) 3.68 mg/kg/day; (monkey, strain Rhesus [Macaca mulatta], both sexes, in feed, site: leptomeninges, lesion: lymphocytic lymphoma, dosed 774 weeks, study length 851 weeks) 6.79 mg/kg/day; (monkey, strain Rhesus [Macaca mulatta], both sexes, in feed, site: salivary gland, lesion: adenoma, dosed 774 weeks, study length 851 weeks) 2.18 mg/kg/day; (monkey, strain Rhesus [Macaca mulatta], both sexes, in feed, site: uterus, lesion: leiomyoma, dosed 774 weeks, study length 851 weeks) 2.74 mg/kg/day; (mouse, strain B6C3F1, females, in feed, site: all sites, lesion: systemic and localized lymphoma, dosed 94 weeks, study length 94 weeks) 7.59 mg/kg/day. In addition, the TD50 was 43.8 mg/kg/day (mouse, strain B6C3F1, females, in feed, site: all sites, lesion: systemic and localized lymphoma, dosed 100 weeks, study length 100 weeks); 67.5 mg/kg/day (mouse, strain B6C3F1, females, in feed, site: liver, lesion: hepatocellular adenoma, dosed 100 weeks, study length 100 weeks); 4.89 mg/kg/day (mouse, strain B6C3F1, females, in feed, site: lung, lesion: one or several types, types not named, dosed 94 weeks, study length 94 weeks); 8.92 mg/kg/day (mouse, strain B6C3F1, females, in feed, site: uterus, lesion: hemangioendothelioma, dosed 100 weeks, study length 100 weeks); 9.66 mg/kg/day (mouse, strain B6C3F1, males, in feed, site: all sites, lesion: systemic and localized lymphoma, dosed 100 weeks, study length 100 weeks); 55.9 mg/kg/day (mouse, strain B6C3F1, males, in feed, site: liver, lesion: hepatocellular carcinoma, dosed 100 weeks, study length 100 weeks). Further, the TD50 came out at 55.9 mg/kg/day (mouse, strain B6C3F1, males, in feed, site: lung, lesion: carcinoma, dosed 100 weeks, study length 100 weeks) and 10.1 mg/kg/day (rat, strain Fischer 344, females, in feed, site: ear duct, lesion: squamous-cell carcinoma, dosed 52 weeks, study length 52 weeks). Moreover, the carcinogen call (rat, strain Fischer 344, females, in feed, site: liver, lesion: one or several types, types not named, dosed 52 weeks, study length 52 weeks) was “negative (inactive)”.

As for `C=CC(OC(C)=O)c1ccc2c(c1)OCO2` (stereo not drawn), the TD50 reads like this: (rat, strain Charles River CD (Sprague-Dawley), males, in feed, site: any site (literature study), lesion: several types, types named in the paper, dosed 36 weeks, study length 52 weeks) 21.1 mg/kg/day; (rat, strain Charles River CD (Sprague-Dawley), males, in feed, site: any site (literature study), lesion: several types, types named in the paper, dosed 47 weeks, study length 69 weeks) 32.4 mg/kg/day; (rat, strain Charles River CD (Sprague-Dawley), males, in feed, site: forestomach, lesion: papilloma, dosed 36 weeks, study length 52 weeks) 21.1 mg/kg/day; (rat, strain Charles River CD (Sprague-Dawley), males, in feed, site: forestomach, lesion: papilloma, dosed 47 weeks, study length 69 weeks) 30.7 mg/kg/day; (rat, strain Charles River CD (Sprague-Dawley), males, in feed, site: liver, lesion: hepatocellular carcinoma, dosed 36 weeks, study length 52 weeks) 348 mg/kg/day (inactive). Further, under “rat, strain Charles River CD (Sprague-Dawley), males, in feed, site: liver, lesion: carcinoma, dosed 47 weeks, study length 69 weeks”, the carcinogen call is “negative (inactive)”.

Turning to `CC(/C=C/C=C(\C)C(=O)O[C@@H]1O[C@H](CO[C@@H]2O[C@H](CO)[C@@H](O)[C@H](O)[C@H]2O)[C@@H](O)[C@H](O)[C@H]1O)=C\C=C\C=C(C)\C=C\C=C(/C)C(=O)O[C@@H]1O[C@H](CO[C@@H]2O[C@H](CO)[C@@H](O)[C@H](O)[C@H]2O)[C@@H](O)[C@H](O)[C@H]1O`, the carcinogen call is, setting by setting: (mouse, strain C57BL/6N, females, in drinking water, site: liver, lesion: hepatoma, dosed 95 weeks, study length 95 weeks) “negative (inactive)”; (mouse, strain C57BL/6N, females, in drinking water, site: lung, lesion: one or several types, types not named, dosed 95 weeks, study length 95 weeks) “negative (inactive)”; (mouse, strain C57BL/6N, males, in drinking water, site: liver, lesion: hepatoma, dosed 95 weeks, study length 95 weeks) “negative (inactive)”; (mouse, strain C57BL/6N, males, in drinking water, site: lung, lesion: one or several types, types not named, dosed 95 weeks, study length 95 weeks) “negative (inactive)”.

As for `CC(C)Oc1ccc(Nc2ccccc2)cc1`, the TD50 is, setting by setting: (mouse, strain B6AKF1, females, oral dosing, site: any site (literature study), lesion: several types, types named in the paper, dosed 76 weeks, study length 76 weeks) 1200 mg/kg/day (inactive); (mouse, strain B6AKF1, females, oral dosing, site: liver, lesion: angioma, dosed 76 weeks, study length 76 weeks) 2650 mg/kg/day (inactive); (mouse, strain B6AKF1, males, oral dosing, site: any site (literature study), lesion: several types, types named in the paper, dosed 76 weeks, study length 76 weeks) 985 mg/kg/day (inactive); (mouse, strain B6AKF1, males, oral dosing, site: liver, lesion: hepatoma, dosed 76 weeks, study length 76 weeks) 1130 mg/kg/day (inactive); (mouse, strain B6AKF1, males, oral dosing, site: lung, lesion: adenoma, dosed 76 weeks, study length 76 weeks) 2180 mg/kg/day (inactive); (mouse, strain B6C3F1, females, oral dosing, site: any site (literature study), lesion: several types, types named in the paper, dosed 76 weeks, study length 76 weeks) 1290 mg/kg/day (inactive). The TD50 is 2650 mg/kg/day (inactive) (mouse, strain B6C3F1, females, oral dosing, site: liver, lesion: hepatoma, dosed 76 weeks, study length 76 weeks); 300 mg/kg/day (inactive) (mouse, strain B6C3F1, males, oral dosing, site: any site (literature study), lesion: several types, types named in the paper, dosed 76 weeks, study length 76 weeks); 679 mg/kg/day (inactive) (mouse, strain B6C3F1, males, oral dosing, site: liver, lesion: hepatoma, dosed 76 weeks, study length 76 weeks); 2180 mg/kg/day (inactive) (mouse, strain B6C3F1, males, oral dosing, site: lung, lesion: adenoma, dosed 76 weeks, study length 76 weeks). Also, the carcinogen call was “negative (inactive)” (mouse, strain B6AKF1, females, oral dosing, site: lung, lesion: adenoma, dosed 76 weeks, study length 76 weeks) and “negative (inactive)” (mouse, strain B6C3F1, females, oral dosing, site: lung, lesion: several types, types named in the paper, dosed 76 weeks, study length 76 weeks).

Take `O=CC(O)C(O)C(O)C(O)COC1OC(COC2OC(CO)C(O)C(O)C2O)C(O)C(O)C1O` (stereo not drawn): the TD50 (rat, strain ACI, females, in feed, site: urinary bladder, lesion: one or several types, types not named, dosed 68 weeks, study length 68 weeks) was 1640 mg/kg/day (inactive) and the TD50 (rat, strain ACI, males, in feed, site: urinary bladder, lesion: one or several types, types not named, dosed 68 weeks, study length 68 weeks) is 3190 mg/kg/day (inactive).
